The target of assay [1] is T1, h-GABA-A α5β3γ2 (Homo sapiens, UniProt P18507+P31644). As to the kind of experiment: [3H]flumazenil competition binding assay, membranes of HEK293 cells expressing GABAA receptors. As to conditions: displacement of [3H]-Flumazenil 0.5 nM, HEK293 cells expressing human receptors, mean of two determinations; Table 1. The procedure:
The affinity of compounds at GABAA receptor subtypes was measured by competition for [3H]flumazenil (85 Ci/mmol; Roche) binding to HEK293 cells expressing rat (stably transfected) or human (transiently transfected) receptors of composition α1β3γ2, α2β3γ2, α3β3γ2 and α5β3γ2.
Cell pellets were suspended in Krebs-tris buffer (4.8 mM KCl, 1.2 mM CaCl2), 1.2 mM MgCl2, 120 mM NaCl, 15 mM Tris; pH 7.5; binding assay buffer), homogenized by polytron for ca. 20 sec on ice and centrifuged for 60 min at 4° C. (50000 g; Sorvall, rotor: SM24=20000 rpm). The cell pellets were resuspended in Krebs-tris buffer and homogenized by polytron for ca. 15 sec on ice. Protein was measured (Bradford method, Bio-Rad) and aliquots of 1 mL were prepared and stored at −80° C.
Assays were incubated to equilibrium for 1 hour at 4° C. and harvested onto GF/C uni-filters (Packard) by filtration using a Packard harvester and washing with ice-cold wash buffer (50 mM Tris; pH 7.5). After drying, filter-retained radioactivity was detected by liquid scintillation counting. Ki values were calculated using Excel-Fit (Microsoft) and are the means of two determinations.

The target of assay [2] is T1, h-GABA-A α5β3γ2. Description: Two-electrode voltage clamp electrophysiology in Xenopus laevis oocytes expressing GABAA receptors, modulation of GABA EC20 current. As to conditions: Table 1; for Efficacy (GABA) %: % modulation of GABA EC20 = 100*(Fold increase-1); for Fold increase h-GABA-A α5β3γ2 oocyte: test compound at approx. 30 fold its Ki, GABA at EC20. More on the design: host or cells: Xenopus laevis oocytes micro-injected with RNA transcripts of the subunits. Format: cell-based. As to the method: Xenopus laevis oocytes at maturation stages V-VI were used for the expression of cloned mRNA encoding GABAA receptor subunits. Oocytes ready for RNA micro-injection were bought from Ecocyte, Castrop-Rauxel, Germany and stored in modified Barth's medium (composition in mM: NaCl 88, KCl 1, NaHCO32.4, HEPES 10, MgSO4 0.82, CaNO3 0.33, CaCl2 0.33, pH=7.5) at 20° C. until the experiment.
Oocytes were plated in 96-well plates to be used in an automated instrument (Robo-ocyte, MultiChannelSystems, Reutlingen, Germany) for microinjection and electrophysiological recordings. Approximately 50 nl of an aqueous solution containing the RNA transcripts for the subunits of the desired GABAA receptor was injected into each oocyte. RNA concentrations ranged between 0.3 and 16 ng/μl/subunit and were adjusted in pilot experiments to obtain GABA responses of a suitable size and a maximal effect of the reference modulator, Beta-CCM (β-CCM), a betacarboline negative allosteric modulator (NAM) at the GABAA receptor benzodiazepine (BZD) binding site or Midazolam, a benzodiazepine positive allosteric modulator (PAM) at the GABAA receptor benzodiazepine (BZD) binding site. The concentration of the γ2 subunit encoding RNA usually was 5- to 10-fold higher than the RNAs encoding the other subunits. Oocytes were kept in modified Barth's medium (composition in mM: NaCl 88, KCl 1, NaHCO3 4, HEPES 10, MgSO4 0.82, CaNO3 0.33, CaCl2) 0.33, pH=7.5) at 20° C. until the experiment.
Electrophysiological experiments were performed on days 3 to 5 after the micro-injection of mRNA. During the experiment the oocytes were constantly superfused by a solution containing (in mM) NaCl 90, KCl 1, HEPES 5, MgCl2 1, CaCl2) 1 (pH 7.4). Oocytes were impaled by two glass microelectrodes (resistance: 0.4 MΩ) which were filled with a solution containing KCl 1M+K-acetate 1.5 M and voltage-clamped to −80 mV. The recordings were performed at room temperature using the Roboocyte two-electrode voltage clamp system (Multichannelsystem). After an initial equilibration period of 1.5 min GABA was added for 1.5 min at a concentration evoking approximately 20% of a maximal current response (EC20). After another rest interval of 2.5 min GABA was again added evoking a response of similar amplitude and shape. 0.5 min after the onset of this second GABA application the test compound, at a concentration corresponding to approximatively 30 fold its Ki, was added while GABA was still present. Current traces were recorded at a digitization rate of 10 Hz during and shortly before and after the GABA application.
Each compound and concentration was tested on at least 3 oocytes. Different oocytes were used for different compound concentrations. β-CCM, a negative allosteric modulator, or Midazolam, a positive allosteric modulators, were tested on a few (3-6) oocytes on each 96-well plate for a positive control at a maximally effective. β-CCM inhibited the GABA-evoked current by approximatively 50% (Fold increase ˜0.5), while Midazolam potentiated the GABA-induced current by approximatively 150% (Fold increase ˜2.5).
For the analysis, the digitized current traces of the first and second GABA response were superimposed and, if necessary, rescaled to equal maximal amplitudes. The ratio between the two responses during the time interval of test compound application was calculated point by point. The extremum of the resulting “ratio trace” was taken as the efficacy (“Fold increase”) of the compound expressed as “% modulation of GABA EC20” (100*(Fold increase-1)).
For orientation: In two-electrode clamp one electrode senses voltage and the other passes current.

SMILES strings stand for the structures.

Usually Ki stands for the dissociation constant of the complex between target and ligand, obtained from inhibition or displacement. A lower Ki goes with a stronger hold on the target. On to `Cc1ccc(-c2noc(C)c2Cn2ncc(N3CC4(CCC(F)CO4)C3)cc2=O)cn1` (single isomer, unassigned) [Example 276], for which affinity on h-GABA-A α5β3γ2 [1] was put at a Ki of 36.2 nM. Besides, at h-GABA-A α5β3γ2 [2], the “Efficacy (GABA) %” value is reported as 102% and the “Fold increase h-GABA-A α5β3γ2 oocyte” value is on record as 2.02.

On to `Cc1ccc(-c2noc(C)c2Cn2ncc(N3CCN(C(C)C)[C@@H](C)C3)cc2=O)cn1` [Example 184, 5-[(3S)-4-isopropyl-3-methyl-piperazin-1-yl]-2-[[5-methyl-3-(6-methyl-3-pyridyl)isoxazol-4-yl]methyl]pyridazin-3-one], for which, on h-GABA-A α5β3γ2 [1], the affinity corresponds to a Ki of 28.8 nM. Also, at h-GABA-A α5β3γ2 [2], the “Efficacy (GABA) %” value is reported as 125% and the “Fold increase h-GABA-A α5β3γ2 oocyte” value worked out at 2.25.

Take `Cc1onc(-c2ccc(F)cc2)c1Cn1ncc(N2CCOCC2)cc1=O` [Example 11, 2-((3-(4-Fluorophenyl)-5-methylisoxazol-4-yl)methyl)-5-morpholinopyridazin-3(2H)-one]: the Ki at h-GABA-A α5β3γ2 [1] was found to be 7.9 nM. In addition, at h-GABA-A α5β3γ2 [2], the “Efficacy (GABA) %” value is recorded as 57% and the “Fold increase h-GABA-A α5β3γ2 oocyte” value worked out at 1.57.

In turn, `C[C@@H]1CN(c2cnn(Cc3c(-c4ccc(Cl)cn4)noc3C3CC3)c(=O)c2)C[C@H](C)O1` [Example 14, 2-((3-(5-Chloropyridin-2-yl)-5-cyclopropylisoxazol-4-yl)methyl)-5-(cis-2,6-dimethylmorpholino)pyridazin-3(2H)-one] showed a Ki at h-GABA-A α5β3γ2 [1] of 1.5 nM. On h-GABA-A α5β3γ2 [2], the “Efficacy (GABA) %” value is reported as 166% and the “Fold increase h-GABA-A α5β3γ2 oocyte” value is 2.66.

Regarding `CCO[C@H]1CN(c2cnn(Cc3c(-c4ccc(Cl)nc4)noc3C)c(=O)c2)[C@H]1C` [Example 291, 2-((3-(6-chloropyridin-3-yl)-5-methylisoxazol-4-yl)methyl)-5-((2S,3S)-3-ethoxy-2-methylazetidin-1-yl)pyridazin-3(2H)-one], the Ki on h-GABA-A α5β3γ2 [1] was determined as 2.8 nM. Besides, at h-GABA-A α5β3γ2 [2], the “Efficacy (GABA) %” value turned out to be 124% and the “Fold increase h-GABA-A α5β3γ2 oocyte” value came out at 2.24.

The molecule `Cc1ccc(-c2noc(C)c2Cn2ncc(N3CCC(C(=O)NC4CC4)CC3)cc2=O)cn1` [Example 27, N-cyclopropyl-1-[1-[[5-methyl-3-(6-methyl-3-pyridyl)isoxazol-4-yl]methyl]-6-oxo-pyridazin-4-yl]piperidine-4-carboxamide] showed a Ki on h-GABA-A α5β3γ2 [1] of 14.2 nM. On h-GABA-A α5β3γ2 [2], the “Efficacy (GABA) %” value worked out at 100% and the “Fold increase h-GABA-A α5β3γ2 oocyte” value is on record as 2.

For `Cc1ccc(-c2noc(C)c2Cn2ncc(N3CC4(CCC4)C3)cc2=O)cn1` [Example 69, 5-(2-azaspiro[3.3]heptan-2-yl)-2-[[5-methyl-3-(6-methyl-3-pyridyl)isoxazol-4-yl]methyl]pyridazin-3-one], the Ki at h-GABA-A α5β3γ2 [1] was 38.9 nM. On h-GABA-A α5β3γ2 [2], the “Efficacy (GABA) %” value is recorded as 155% and the “Fold increase h-GABA-A α5β3γ2 oocyte” value turned out to be 2.55.

In the case of `Cc1ccc(-c2noc(C)c2Cn2ncc(-c3ccc(OC(C)C)cc3)cc2=O)cn1` [Example 115, 5-(4-isopropoxyphenyl)-2-((5-methyl-3-(6-methyl-3-pyridyl)isoxazol-4-yl)methyl)pyridazin-3-one], at h-GABA-A α5β3γ2 [1], the Ki was 10.4 nM. In addition, at h-GABA-A α5β3γ2 [2], the “Efficacy (GABA) %” value was 87% and the “Fold increase h-GABA-A α5β3γ2 oocyte” value is recorded as 1.87.

`Cc1ccc(-c2noc(C)c2Cn2ncc(-c3cc(F)cnc3Cl)cc2=O)cn1` [Example 189, 5-(2-chloro-5-fluoro-3-pyridyl)-2-((5-methyl-3-(6-methyl-3-pyridyl)isoxazol-4-yl)methyl)pyridazin-3-one] came in with a Ki on h-GABA-A α5β3γ2 [1] of 28.2 nM. On h-GABA-A α5β3γ2 [2], the “Efficacy (GABA) %” value was 180% and the “Fold increase h-GABA-A α5β3γ2 oocyte” value was 2.8.

`Cc1ccc(-c2noc(C)c2Cn2ncc(N3CCC(C)(O)C3)cc2=O)cn1` (stereo not drawn) [Example 118, 5-(3-hydroxy-3-methylpyrrolidin-1-yl)-2-((5-methyl-3-(6-methylpyridin-3-yl)isoxazol-4-yl)methyl)pyridazin-3(2H)-one]: the inhibition constant (Ki) at h-GABA-A α5β3γ2 [1] was determined as 9.2 nM. In addition, on h-GABA-A α5β3γ2 [2], the “Efficacy (GABA) %” value was determined as 210% and the “Fold increase h-GABA-A α5β3γ2 oocyte” value is listed as 3.1.

As for `Cc1cc(-c2noc(C)c2Cn2ncc(N3CC4(CCCO4)C3)cc2=O)no1` [Example 142, 2-[[5-methyl-3-(5-methylisoxazol-3-yl)isoxazol-4-yl]methyl]-5-(5-oxa-2-azaspiro[3.4]octan-2-yl)pyridazin-3-one], the inhibitory constant (Ki) at h-GABA-A α5β3γ2 [1] was found to be 15.4 nM. On h-GABA-A α5β3γ2 [2], the “Efficacy (GABA) %” value came out at 48% and the “Fold increase h-GABA-A α5β3γ2 oocyte” value came to 1.48.

Take `COC1CN(c2cnn(Cc3c(-c4ccc(C)nn4)noc3C)c(=O)c2)C1` [Example 169, 5-(3-methoxyazetidin-1-yl)-2-[[5-methyl-3-(6-methylpyridazin-3-yl)isoxazol-4-yl]methyl]pyridazin-3-one]: the affinity on h-GABA-A α5β3γ2 [1], expressed as Ki, was 2.4 nM. For the same molecule, on h-GABA-A α5β3γ2 [2], the “Efficacy (GABA) %” value was 97% and the “Fold increase h-GABA-A α5β3γ2 oocyte” value was determined as 1.97.

At h-GABA-A α5β3γ2 [1], `Cc1onc(-c2ccc(Cl)cc2)c1Cn1ncc(N2CC3(CCCO3)C2)cc1=O` [Example 162, 2-[[3-(4-chlorophenyl)-5-methyl-isoxazol-4-yl]methyl]-5-(5-oxa-2-azaspiro[3.4]octan-2-yl)pyridazin-3-one] registered a Ki of 18.8 nM. On h-GABA-A α5β3γ2 [2], the “Efficacy (GABA) %” value amounted to 40% and the “Fold increase h-GABA-A α5β3γ2 oocyte” value was found to be 1.4.

In the case of `Cc1ccc(-c2noc(C)c2Cn2ncc(N3CC(OCC4CC4)C3)cc2=O)nn1` [Example 185, 5-[3-(cyclopropylmethoxy)azetidin-1-yl]-2-[[5-methyl-3-(6-methylpyridazin-3-yl)isoxazol-4-yl]methyl]pyridazin-3-one], the Ki on h-GABA-A α5β3γ2 [1] was 4.2 nM. On h-GABA-A α5β3γ2 [2], the “Efficacy (GABA) %” value amounted to 126% and the “Fold increase h-GABA-A α5β3γ2 oocyte” value came out at 2.26.

As to `Cc1ccc(-c2noc(C)c2Cn2ncc(N3CC4(C[C@@H](OC(F)F)CO4)C3)cc2=O)cn1` [Example 203, 5-[(7R)-7-(difluoromethoxy)-5-oxa-2-azaspiro[3.4]octan-2-yl]-2-[[5-methyl-3-(6-methyl-3-pyridyl)isoxazol-4-yl]methyl]pyridazin-3-one], the inhibition constant (Ki) at h-GABA-A α5β3γ2 [1] came to 17.8 nM. Moreover, at h-GABA-A α5β3γ2 [2], the “Efficacy (GABA) %” value is 121% and the “Fold increase h-GABA-A α5β3γ2 oocyte” value turned out to be 2.21.

`Cc1onc(-c2ccc(Cl)nc2)c1Cn1ncc(N2CC(OC3CCC3)C2)cc1=O` [Example 253, 2-((3-(6-chloropyridin-3-yl)-5-methylisoxazol-4-yl)methyl)-5-(3-cyclobutoxyazetidin-1-yl)pyridazin-3(2H)-one] registered a Ki on h-GABA-A α5β3γ2 [1] of 31 nM. In addition, on h-GABA-A α5β3γ2 [2], the “Efficacy (GABA) %” value is 156% and the “Fold increase h-GABA-A α5β3γ2 oocyte” value is listed as 2.56.

Molecule `COc1ccc(-c2cnn(Cc3c(-c4ccc(C)nc4)noc3C)c(=O)c2)cc1` [Example 76, 5-(4-methoxyphenyl)-2-[[5-methyl-3-(6-methylpyridin-3-yl)-1,2-oxazol-4-yl]methyl]pyridazin-3-one] gave a Ki at h-GABA-A α5β3γ2 [1] of 6.4 nM. Also, at h-GABA-A α5β3γ2 [2], the “Efficacy (GABA) %” value came out at 71% and the “Fold increase h-GABA-A α5β3γ2 oocyte” value was 1.71.

(Values after patent US11840528B2 (Hoffmann-La Roche Inc., priority 2018, dated 2023).)
